Measured values reported in PubChem BioAssay AID2060908 (Molecular Pharmacology Branch, DTP, NCI, 2025).

System: 186277-243-T-J2-PDC complex spheroids, viability
Assay: Anticancer human tumor 186277-243-T-J2-PDC patient-derived colon adenocarcinoma cell line growth inhibition [RAS]
Settings: for IC50: curve of first compound; for viability, T/C: stronger effect = lower value
Procedure, shortened: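 Tumour cells grown as complex spheroids with HUVEC endothelial cells and mesenchymal stem cells, treated with RAS pathway inhibitor combinations. Each agent spans half-log steps from near clinical Cmax, or 10 microM where Cmax is unknown.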

[1] = second compound 0.0316 µM, first compound 0.0316 µM
[2] = second compound 0.0316 µM, first compound 0.1 µM
[3] = second compound 0.0316 µM, first compound 0.316 µM
[4] = second compound 0.0316 µM, first compound 1 µM
[5] = second compound 0.0316 µM, first compound 3.16 µM
[6] = second compound 0.0316 µM, first compound 10 µM
[7] = second compound 0.1 µM, first compound 0.0316 µM
[8] = second compound 0.1 µM, first compound 0.1 µM
[9] = second compound 0.1 µM, first compound 0.316 µM
[10] = second compound 0.1 µM, first compound 1 µM
[11] = second compound 0.1 µM, first compound 3.16 µM
[12] = second compound 0.1 µM, first compound 10 µM
[13] = second compound 0.316 µM, first compound 0.0316 µM
[14] = second compound 0.316 µM, first compound 0.1 µM
[15] = second compound 0.316 µM, first compound 0.316 µM
[16] = second compound 0.316 µM, first compound 1 µM
[17] = second compound 0.316 µM, first compound 3.16 µM
[18] = second compound 0.316 µM, first compound 10 µM
[19] = second compound 1 µM, first compound 0.0316 µM
[20] = second compound 1 µM, first compound 0.1 µM
[21] = second compound 1 µM, first compound 0.316 µM
[22] = second compound 1 µM, first compound 1 µM
[23] = second compound 1 µM, first compound 3.16 µM
[24] = second compound 1 µM, first compound 10 µM
[25] = second compound 3.16 µM, first compound 0.0316 µM
[26] = second compound 3.16 µM, first compound 0.1 µM
[27] = second compound 3.16 µM, first compound 0.316 µM
[28] = second compound 3.16 µM, first compound 1 µM
[29] = second compound 3.16 µM, first compound 3.16 µM
[30] = second compound 3.16 µM, first compound 10 µM
[31] = second compound 10 µM, first compound 0.0316 µM
[32] = second compound 10 µM, first compound 0.1 µM
[33] = second compound 10 µM, first compound 0.316 µM
[34] = second compound 10 µM, first compound 1 µM
[35] = second compound 10 µM, first compound 3.16 µM
[36] = second compound 10 µM, first compound 10 µM
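Further: spheroids exposed to compounds for 7 days before viability read.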

CC1(O)CCCC1n1c(=O)c(C(F)F)cc2cnc(NC3CCN(S(C)(=O)=O)CC3)nc21 (centres undefined) + C#Cc1c(F)ccc2cc(O)cc(-c3ncc4c(N5CC6CCC(C5)N6)nc(OCC56CCCN5CC(F)C6)nc4c3F)c12
IC50 (second compound 0.0316 µM): 0.57 µM
IC50 (second compound 0.1 µM): 0.104 µM
IC50 (second compound 0.316 µM): < 0.0316 µM
IC50 (second compound 1 µM): < 0.0316 µM
IC50 (second compound 3.16 µM): < 0.0316 µM
IC50 (second compound 10 µM): < 0.0316 µM
viability, T/C [1]: 71.2%
viability, T/C [2]: 69.4%
viability, T/C [3]: 47.3%
viability, T/C [4]: 43.7%
viability, T/C [5]: 33.4%
viability, T/C [6]: 1.2%
viability, T/C [7]: 65.4%
viability, T/C [8]: 50.3%
viability, T/C [9]: 31.8%
viability, T/C [10]: 27.8%
viability, T/C [11]: 20.9%
viability, T/C [12]: 0.42%
viability, T/C [13]: 23.6%
viability, T/C [14]: 23.3%
viability, T/C [15]: 17%
viability, T/C [16]: 16.9%
viability, T/C [17]: 11.4%
viability, T/C [18]: 0.33%
viability, T/C [19]: 15.6%
viability, T/C [20]: 13.1%
viability, T/C [21]: 10%
viability, T/C [22]: 12.4%
viability, T/C [23]: 10.8%
viability, T/C [24]: 0.24%
viability, T/C [25]: 11.4%
viability, T/C [26]: 12.1%
viability, T/C [27]: 9.69%
viability, T/C [28]: 8.93%
viability, T/C [29]: 9.39%
viability, T/C [30]: 0.27%
viability, T/C [31]: 9.74%
viability, T/C [32]: 8.08%
viability, T/C [33]: 9.05%
viability, T/C [34]: 8.95%
viability, T/C [35]: 8.58%
viability, T/C [36]: 0.36%

CCC(CC)c1cc(NC2CCC(N)C2)n2nccc2n1 (centres undefined) + C#Cc1c(F)ccc2cc(O)cc(-c3ncc4c(N5CC6CCC(C5)N6)nc(OCC56CCCN5CC(F)C6)nc4c3F)c12
IC50 (second compound 0.0316 µM): 0.672 µM
IC50 (second compound 0.1 µM): 0.564 µM
IC50 (second compound 0.316 µM): < 0.0316 µM
IC50 (second compound 1 µM): < 0.0316 µM
IC50 (second compound 3.16 µM): < 0.0316 µM
IC50 (second compound 10 µM): < 0.0316 µM
viability, T/C [1]: 79.8%
viability, T/C [2]: 77.9%
viability, T/C [3]: 79.6%
viability, T/C [4]: 34.8%
viability, T/C [5]: 3.07%
viability, T/C [6]: 0.17%
viability, T/C [7]: 56.6%
viability, T/C [8]: 77.6%
viability, T/C [9]: 69%
viability, T/C [10]: 32.4%
viability, T/C [11]: 2.77%
viability, T/C [12]: 0.13%
viability, T/C [13]: 32.8%
viability, T/C [14]: 40%
viability, T/C [15]: 33.4%
viability, T/C [16]: 17.3%
viability, T/C [17]: 2.52%
viability, T/C [18]: 0.1%
viability, T/C [19]: 16.6%
viability, T/C [20]: 21.3%
viability, T/C [21]: 19.9%
viability, T/C [22]: 11.3%
viability, T/C [23]: 2.86%
viability, T/C [24]: 0.14%
viability, T/C [25]: 11.1%
viability, T/C [26]: 14%
viability, T/C [27]: 12.2%
viability, T/C [28]: 10.1%
viability, T/C [29]: 2.81%
viability, T/C [30]: 0.16%
viability, T/C [31]: 9.8%
viability, T/C [32]: 9.61%
viability, T/C [33]: 8.97%
viability, T/C [34]: 6.36%
viability, T/C [35]: 2.12%
viability, T/C [36]: 0.21%
